Results taken from patent US20210322509A1, “Methods for Reducing Perinatal Morbidity and / or Mortality” (CHU SAINTE-JUSTINE, priority 2016, published 2021).
Marks after values point to notes of the source that are not given here. Non-standard residues stand in square brackets, D forms with d. Residues, ends and D or L forms follow the SMILES beside them. ξ: configuration not given here. dThr(3ξ) = CC(O)[C@@H](N)C(=O)O

Test system: progeny of C57Bl/6 dams given LPS and/or compound 2
Test: Offspring growth trajectory and body morphometry at 20 weeks after exposure in utero
Format: in vivo, C57Bl/6 mice
Settings: for Adrenals L / Adrenals R / Biceps / Brain / Combined Muscle / Gastrocnemius / Heart / Kidneys L / Kidneys R / Lean body weight / Liver / Lungs / Muscle:fat ratio / Ovary L / Ovary R / Parametrial Fat / Peri-renal Fat / Quadriceps / Retroperitoneal Fat / Spleen / Thymus / Total Central Fat / Triceps / Uterus / Epididymal Fat / Epididymis (L + R) / Seminal Vesicle / Testes L / Testes R: mean ± SEM
Procedure: FIGS. 12A and 12B show the effect of exposure to compound 2 in utero on growth trajectory in offspring. Pregnant females were given either LPS or PBS control i.p. on gd 16.5, then compound 2 or PBS vehicle i.p. at 12 h intervals on gd 16.5, 17.0, 17.5 and 18.0. Growth trajectories of male (FIG. 12A) and female (FIG. 12B) progeny of mothers receiving LPS and/or compound 2 are shown as estimated marginal means±SEM, of n=20 male and n=20 female offspring in each group; *P<0.05). Data was analyzed by a Mixed Model Linear Repeated Measures ANOVA and post-hoc Sidak test.
Animal and treatments. To analyze effects of compound 2 on offspring development into adulthood, pups delivered in the experiment described in Example 5 were weighed at 21 days, when pups were weaned and housed in groups of 1-4 siblings according to sex. All progeny were weighed again at 4 weeks and then every 2 weeks until 20 weeks of age. At 20 weeks, progeny were killed by cervical dislocation, weighed and autopsied for full body composition analysis. The following tissues were excised and weighed individually; brain, heart, lungs (left and right), kidneys (left and right), liver, adrenal glands (left and right), thymus, spleen, testes (males, left and right), seminal vesicle (males), epididymis (males), ovaries (females, left and right), uterus (females), quadriceps (left and right), triceps (left and right), biceps (left and right), gastrocnemius muscle (left and right), retroperitoneal fat, peri-renal fat, epididymal fat (males, left and right) and parametrial fat (females). Weights of bilateral tissues and organs were combined for each mouse. Total muscle weight was calculated by summing the weights of quadriceps, triceps, and biceps and gastrocnemius muscles. Total fat weight was calculated by summing the weights of retroperitoneal fat, peri-renal fat and epididymal fat (for males) or parametrial fat (for females), and the muscle/fat ratio was determined. Total fat weight was subtracted from total body weight to calculate total lean weight.

[1] = 20 week old adult female progeny, LPS + compound 2 in utero
[2] = 20 week old adult female progeny, PBS + compound 2 in utero
[3] = 20 week old adult male progeny, LPS + compound 2 in utero
[4] = 20 week old adult male progeny, PBS + compound 2 in utero

## CC(C)C[C@@H](NC(=O)[C@@H](CCC(=O)O)NC(=O)[C@H](NC(=O)[C@H](NC(=O)[C@@H](Cc1ccc(O)cc1)NC(=O)[C@H](N)CCCNC(=N)N)C(C)O)C(C)C)C(=O)N[C@H](C)C(=O)O (stereo partly drawn) [compound 2] (H-[dR][dY][dThr(3ξ)][dV][dE][dL][dA]-OH)
[1]
  Adrenals L: 4 ± 0 mg
  Adrenals R: 4 ± 0 mg
  Biceps: 48 ± 3 mg
  Brain: 408 ± 9 mg
  Combined Muscle: 673 ± 25 mg
  Gastrocnemius: 207 ± 8 mg
  Heart: 105 ± 4 mg
  Kidneys L: 120 ± 5 mg
  Kidneys R: 127 ± 6 mg
  Lean body weight: 19.44 g
  Liver: 955 ± 38 mg
  Lungs: 165 ± 10 mg
  Muscle:fat ratio: 1.23 ± 0.06
  Ovary L: 13 ± 2 mg
  Ovary R: 13 ± 1 mg
  Parametrial Fat: 180 ± 20 mg
  Peri-renal Fat: 66 ± 7 mg
  Quadriceps: 254 ± 13 mg
  Retroperitoneal Fat: 317 ± 18 mg
  Spleen: 86 ± 7 mg
  Thymus: 70 ± 5 mg
  Total Central Fat: 562 ± 41 mg
  Triceps: 165 ± 7 mg
  Uterus: 66 ± 8 mg
[2]
  Adrenals L: 4 ± 0 mg
  Adrenals R: 4 ± 0 mg
  Biceps: 51 ± 3 mg
  Brain: 406 ± 9 mg
  Combined Muscle: 690 ± 24 mg
  Gastrocnemius: 215 ± 8 mg
  Heart: 109 ± 3 mg
  Kidneys L: 112 ± 5 mg
  Kidneys R: 122 ± 6 mg
  Lean body weight: 19.85 g
  Liver: 945 ± 37 mg
  Lungs: 174 ± 11 mg
  Muscle:fat ratio: 1.18 ± 0.06
  Ovary L: 16 ± 2 mg
  Ovary R: 16 ± 1 mg
  Parametrial Fat: 192 ± 20 mg
  Peri-renal Fat: 71 ± 7 mg
  Quadriceps: 254 ± 12 mg
  Retroperitoneal Fat: 326 ± 18 mg
  Spleen: 93 ± 7 mg
  Thymus: 64 ± 5 mg
  Total Central Fat: 589 ± 40 mg
  Triceps: 170 ± 7 mg
  Uterus: 63 ± 7 mg
[3]
  Adrenals L: 4 ± 0 mg
  Adrenals R: 3 ± 1 mg
  Biceps: 58 ± 3 mg
  Brain: 413 ± 5 mg
  Combined Muscle: 848 ± 18 mg
  Epididymal Fat: 224 ± 16 mg
  Epididymis (L + R): 102 ± 3* mg
  Gastrocnemius: 260 ± 7 mg
  Heart: 128 ± 3 mg
  Kidneys L: 149 ± 5 mg
  Kidneys R: 159 ± 5 mg
  Lean body weight: 23.04 g
  Liver: 1097 ± 40 mg
  Lungs: 173 ± 4 mg
  Muscle:fat ratio: 1.39
  Peri-renal Fat: 65 ± 6 mg
  Quadriceps: 313 ± 8 mg
  Retroperitoneal Fat: 334 ± 26 mg
  Seminal Vesicle: 218 ± 9 mg
  Testes L: 84 ± 3 mg
  Testes R: 85 ± 3 mg
  Total Central Fat: 625 ± 37 mg
  Triceps: 217 ± 6 mg
[4]
  Adrenals L: 5 ± 0 mg
  Adrenals R: 6 ± 2 mg
  Biceps: 67 ± 4 mg
  Brain: 404 ± 7 mg
  Combined Muscle: 840 ± 23 mg
  Epididymal Fat: 244 ± 20 mg
  Epididymis (L + R): 112 ± 4 mg
  Gastrocnemius: 241 ± 9 mg
  Heart: 131 ± 4 mg
  Kidneys L: 156 ± 6 mg
  Kidneys R: 162 ± 6 mg
  Lean body weight: 23.59 g
  Liver: 1141 ± 47 mg
  Lungs: 181 ± 5 mg
  Muscle:fat ratio: 1.28
  Peri-renal Fat: 72 ± 7 mg
  Quadriceps: 318 ± 10 mg
  Retroperitoneal Fat: 353 ± 30 mg
  Seminal Vesicle: 233 ± 12 mg
  Testes L: 85 ± 3 mg
  Testes R: 87 ± 3 mg
  Thymus: 53 ± 4 mg
  Total Central Fat: 669 ± 46 mg
  Triceps: 215 ± 8 mg
Compound 2 exposure in utero, 20 weeks
  body composition of adult offspring: no effect
Compound 2 to dams, with or without concurrent LPS exposure, up to 20 weeks
  growth trajectory of male and female offspring: not affected
